According to patent US20250179073A1, “TRICYCLIC HETEROCYCLE COMPOUNDS AS IAP ANTAGONISTS” (Ascentage Pharma (Suzhou) Co., Ltd., priority 2022, published 2025):

How the values were obtained:
MDA-MB-231 cells = assay: Cell proliferation assay (CellTiter-Glo), MDA-MB-231; type: cell-based; settings: Homo sapiens, MDA-MB-231, 72 h, 72 h treatment, Celltiter-Glo luminescence
Procedure, shortened: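 Compounds tested over ten concentrations ([…]) for 72 h on EVSA-T cells in MEM/10% FBS and MDA-MB-231 cells in RPMI-1640/10% FBS, seeded at 10000/well. Luminescent CellTiter-Glo readout; IC50 fitted after normalisation to controls.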

EVSA-T cells = assay: Cell proliferation assay (CellTiter-Glo), EVSA-T; type: cell-based; settings: Homo sapiens, EVSA-T, 72 h, 72 h treatment, Celltiter-Glo luminescence
Procedure: Example 238: Cell Proliferation Assay
MDA-MB-231 and EVSA-T cells (10000 cells/well) were plated onto 96-well plates (Corning, Cat #3917) in 95 μL of medium (RPMI-1640 containing 10% FBS and MEM containing 10% FBS, respectively). Compounds with various concentrations ([…]) were added to the wells. After treatment for 72 h, 30 μL of Celltiter-Glo reagent (Promega, Cat #G7573) was added and incubated at room temperature for 15 min, then the luminescent signal was determined using a microplate reader (Biotek, SynergyH1). The inhibitor dose-response curves were analyzed using normalized IC50 regression curve fitting with control based normalization.

| SMILES | IC50 (MDA-MB-231 cells) [nM] | IC50 (EVSA-T cells) [nM] |
| --- | --- | --- |
| Cc1ncc2c(Cc3ccc(F)cc3)cc3c(n12)C(C)(C)CN3C(=O)CN1C[C@@H](C)NC[C@@H]1CN1CCOC[C@H]1C [Compound 2, 1-(4-(4-fluorobenzyl)-1,8,8-trimethyl-7,8-dihydro-6H-imidazo[1,5-a]pyrrolo[2,3-e]pyridin-6-yl)-2-((2R,5R)-5-methyl-2-(((R)-3-methylmorpholino)methyl)piperazin-1-yl)ethan-1-one] | 110 | 13 |
| CC(=O)Nc1nc2c(Cc3ccc(F)cc3)cc3c(n2n1)C(C)(C)CN3C(=O)CN1C[C@@H](C)NC[C@@H]1CN1CCOC[C@H]1C [Example 29, N-(4-(4-fluorobenzyl)-8,8-dimethyl-6-(2-((2R,5R)-5-methyl-2-(((R)-3-methylmorpholino)methyl)piperazin-1-yl)acetyl)-7,8-dihydro-6H-pyrrolo[2,3-e][1,2,4]triazolo[1,5-a]pyridin-2-yl)acetamide] | 100 | 10 |
| C[C@@H]1CN(CC(=O)N2CC(C)(C)c3c2cc(Cc2ccc(F)cc2)c2ncc(Br)n32)[C@@H](CN2CCOC[C@H]2C)CN1 [Compound 119, 1-(1-bromo-4-(4-fluorobenzyl)-8,8-dimethyl-7,8-dihydro-6H-imidazo[1,2-a]pyrrolo[2,3-e]pyridin-6-yl)-2-((2R,5R)-5-methyl-2-(((R)-3-methylmorpholino)methyl)piperazin-1-yl)ethan-1-one] | 100 | 6 |
| C[C@@H]1CN(CC(=O)N2CC(C)(C)c3c2cc(Cc2ccc(F)cc2)c2ncnn32)[C@@H](CN2CCN(C3COC3)C[C@H]2C)CN1 [Compound 203, 1-(4-(4-fluorobenzyl)-8,8-dimethyl-7,8-dihydro-6H-pyrrolo[2,3-e][1,2,4]triazolo[1,5-a]pyridin-6-yl)-2-((2R,5R)-5-methyl-2-(((R)-2-methyl-4-(oxetan-3-yl)piperazin-1-yl)methyl)piperazin-1-yl)ethan-1-one] | 10 | 3 |
| C[C@@H]1CN(CC(=O)N2CC(C)(C)c3c2cc(Cc2ccc(F)cc2)c2nc(C4COCCO4)nn32)[C@@H](CN2CCOC[C@H]2C)CN1 (stereo partly drawn) [Compound 206, 1-(2-(1,4-dioxan-2-yl)-4-(4-fluorobenzyl)-8,8-dimethyl-7,8-dihydro-6H-pyrrolo[2,3-e][1,2,4]triazolo[1,5-a]pyridin-6-yl)-2-((2R,5R)-5-methyl-2-(((R)-3-methylmorpholino)methyl)piperazin-1-yl)ethan-1-one] | 18 | 2 |
| C[C@@H]1CN(CC(=O)N2CC(C)(C)c3c2cc(Cc2ccc(F)cc2)c2nc(N4CCOC4=O)nn32)[C@@H](CN2CCOC[C@H]2C)CN1 [Compound 204, 3-(4-(4-fluorobenzyl)-8,8-dimethyl-6-(2-((2R,5R)-5-methyl-2-(((R)-3-methylmorpholino)methyl)piperazin-1-yl)acetyl)-7,8-dihydro-6H-pyrrolo[2,3-e][1,2,4]triazolo[1,5-a]pyridin-2-yl)oxazolidin-2-one] | 44 | 14 |
| CC(C)NC(=O)c1nc2c(Cc3ccc(F)cc3)cc3c(n2n1)C(C)(C)CN3C(=O)CN1C[C@@H](C)NC[C@@H]1CN1CCOC[C@H]1C [Compound 256, 4-(4-fluorobenzyl)-N-isopropyl-8,8-dimethyl-6-(2-((2R,5R)-5-methyl-2-(((R)-3-methylmorpholino)methyl)piperazin-1-yl)acetyl)-7,8-dihydro-6H-pyrrolo[2,3-e][1,2,4]triazolo[1,5-a]pyridine-2-carboxamide] | 70 | 8.9 |
| Cc1cc(F)ccc1Cc1cc2c(n3ncnc13)C(C)(C)CN2C(=O)CN1C[C@@H](C)NC[C@@H]1CN1CCOC[C@H]1C [Compound 115, 1-(4-(4-fluoro-2-methylbenzyl)-8,8-dimethyl-7,8-dihydro-6H-pyrrolo[2,3-e][1,2,4]triazolo[1,5-a]pyridin-6-yl)-2-((2R,5R)-5-methyl-2-(((R)-3-methylmorpholino)methyl)piperazin-1-yl)ethan-1-one] | 160 | 30 |
| Cc1nc(C#N)c2c(Cc3ccc(F)cc3)cc3c(n12)C(C)(C)CN3C(=O)CN1C[C@@H](C)NC[C@@H]1CN1CCOC[C@H]1C [Compound 130, 4-(4-fluorobenzyl)-1,8,8-trimethyl-6-(2-((2R,5R)-5-methyl-2-(((R)-3-methylmorpholino)methyl)piperazin-1-yl)acetyl)-7,8-dihydro-6H-imidazo[1,5-a]pyrrolo[2,3-e]pyridine-3-carbonitrile] | 230 | 37 |
| C[C@@H]1CN(CC(=O)N2CC(C)(C)c3c2cc(Cc2ccc(F)cc2)c2ncnn32)[C@@H](CN2Cc3cccnc3C2=O)CN1 [Compound 98, 6-(((2R,5R)-1-(2-(4-(4-fluorobenzyl)-8,8-dimethyl-7,8-dihydro-6H-pyrrolo[2,3-e][1,2,4]triazolo[1,5-a]pyridin-6-yl)-2-oxoethyl)-5-methylpiperazin-2-yl)methyl)-5,6-dihydro-7H-pyrrolo[3,4-b]pyridin-7-one] | 72 | 8 |
| C[C@@H]1CN(CC(=O)N2CC(C)(C)c3c2cc(Cc2ccc(F)cc2)c2ncnn32)[C@@H](CN2Cc3ccccc3C2=O)CN1 [Compound 94, 2-(((2R,5R)-1-(2-(4-(4-fluorobenzyl)-8,8-dimethyl-7,8-dihydro-6H-pyrrolo[2,3-e][1,2,4]triazolo[1,5-a]pyridin-6-yl)-2-oxoethyl)-5-methylpiperazin-2-yl)methyl)isoindolin-1-one] | 26 | 4 |
| C[C@@H]1CN(CC(=O)N2CC(C)(C)c3c2cc(Cc2ccc(F)cc2)c2nn(C4CC(C)(O)C4)c(=O)n32)[C@@H](CN2CCOC[C@H]2C)CN1 (stereo partly drawn) [Compound 272, 4-(4-fluorobenzyl)-2-(3-hydroxy-3-methylcyclobutyl)-8,8-dimethyl-6-(2-((2R,5R)-5-methyl-2-(((R)-3-methylmorpholino)methyl)piperazin-1-yl)acetyl)-2,6,7,8-tetrahydro-1H-pyrrolo[2,3-e][1,2,4]triazolo[4,3-a]pyridin-1-one] | 21 | 2 |
| COC(=O)N(C)c1nc2c(Cc3ccc(F)cc3)cc3c(n2n1)C(C)(C)CN3C(=O)CN1C[C@@H](C)NC[C@@H]1CN1CCOC[C@H]1C [Compound 225, methyl (4-(4-fluorobenzyl)-8,8-dimethyl-6-(2-((2R,5R)-5-methyl-2-(((R)-3-methylmorpholino)methyl)piperazin-1-yl)acetyl)-7,8-dihydro-6H-pyrrolo[2,3-e][1,2,4]triazolo[1,5-a]pyridin-2-yl)(methyl)carbamate] | 50 | 2 |
| C[C@@H]1CN(CC(=O)N2CC(C)(C)c3c2cc(Cc2ccc(F)cc2)c2nc(C(F)(F)F)cn32)[C@@H](CN2CCN(C3COC3)C[C@H]2C)CN1 [Compound 181, 1-(4-(4-fluorobenzyl)-8,8-dimethyl-2-(trifluoromethyl)-7,8-dihydro-6H-imidazo[1,2-a]pyrrolo[2,3-e]pyridin-6-yl)-2-((2R,5R)-5-methyl-2-(((R)-2-methyl-4-(oxetan-3-yl)piperazin-1-yl)methyl)piperazin-1-yl)ethan-1-one] | 97 | 15 |
| COc1cc(F)ccc1Cc1cc2c(n3ncnc13)C(C)(C)CN2C(=O)CN1C[C@@H](C)NC[C@@H]1CN1CCOC[C@H]1C [Compound 41, 1-(4-(4-fluoro-2-methoxybenzyl)-8,8-dimethyl-7,8-dihydro-6H-pyrrolo[2,3-e][1,2,4]triazolo[1,5-a]pyridin-6-yl)-2-((2R,5R)-5-methyl-2-(((R)-3-methylmorpholino)methyl)piperazin-1-yl)ethan-1-one] | 78 | 14 |
| C[C@@H]1CN(CC(=O)N2CC(C)(C)c3c2cc(Cc2ccc(F)cc2)c2nn(-c4ncccn4)c(=O)n32)[C@@H](CN2CCOC[C@H]2C)CN1 [Compound 230, 4-(4-fluorobenzyl)-8,8-dimethyl-6-(2-((2R,5R)-5-methyl-2-(((R)-3-methylmorpholino)methyl)piperazin-1-yl)acetyl)-2-(pyrimidin-2-yl)-2,6,7,8-tetrahydro-1H-pyrrolo[2,3-e][1,2,4]triazolo[4,3-a]pyridin-1-one] | 38 | 8 |
| COC(=O)N1CCN(CC2CN[C@H](C)CN2CC(=O)N2CC(C)(C)c3c2cc(Cc2ccc(F)cc2)c2ncnn32)[C@H](C)C1 (stereo in doubt) [Compound 223, methyl (R)-4-(((2S,5R)-1-(2-(4-(4-fluorobenzyl)-8,8-dimethyl-7,8-dihydro-6H-pyrrolo[2,3-e][1,2,4]triazolo[1,5-a]pyridin-6-yl)-2-oxoethyl)-5-methylpiperazin-2-yl)methyl)-3-methylpiperazine-1-carboxylate] | 77 | 3 |
| C[C@@H]1CN(CC(=O)N2CC(C)(C)c3c2cc(Cc2ccc(F)cc2)c2nn(CC(F)F)c(=O)n32)[C@@H](CN2CCOC[C@H]2C)CN1 [Compound 264, 2-(2,2-difluoroethyl)-4-(4-fluorobenzyl)-8,8-dimethyl-6-(2-((2R,5R)-5-methyl-2-(((R)-3-methylmorpholino)methyl)piperazin-1-yl)acetyl)-2,6,7,8-tetrahydro-1H-pyrrolo[2,3-e][1,2,4]triazolo[4,3-a]pyridin-1-one] | 15 | 4.7 |
